Active and inactive are the calls of the source.
Tests used:
[1] = target: T1, RNA-binding protein pos-1 (Caenorhabditis elegans, UniProt G5EF15); test: inhibitors of POS-1/mex-3 RNA binding, dose response, biochemical, fluorescence polarization (AID 1964);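 note: purified POS-1 fused to maltose binding protein made in E. coli; potency of compounds blocking POS-1 binding to fluorescent RNA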
T1 sequence (G5EF15 whole entry): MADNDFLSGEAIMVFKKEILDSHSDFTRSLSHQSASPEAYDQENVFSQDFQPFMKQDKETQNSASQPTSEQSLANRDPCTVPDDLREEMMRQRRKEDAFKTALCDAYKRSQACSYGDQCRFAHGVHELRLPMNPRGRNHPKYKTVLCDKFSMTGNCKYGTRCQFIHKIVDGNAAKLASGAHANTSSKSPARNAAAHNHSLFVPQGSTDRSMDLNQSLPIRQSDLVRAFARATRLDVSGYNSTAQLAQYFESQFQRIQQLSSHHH

[2] = target: T2, Alkaline phosphatase, tissue-nonspecific isozyme (Homo sapiens, UniProt P05186); test: human TNAP enzyme inhibitors, SAR follow-up, biochemical, luminescent, dose response (AID 1056)
T2 sequence (P05186 whole entry): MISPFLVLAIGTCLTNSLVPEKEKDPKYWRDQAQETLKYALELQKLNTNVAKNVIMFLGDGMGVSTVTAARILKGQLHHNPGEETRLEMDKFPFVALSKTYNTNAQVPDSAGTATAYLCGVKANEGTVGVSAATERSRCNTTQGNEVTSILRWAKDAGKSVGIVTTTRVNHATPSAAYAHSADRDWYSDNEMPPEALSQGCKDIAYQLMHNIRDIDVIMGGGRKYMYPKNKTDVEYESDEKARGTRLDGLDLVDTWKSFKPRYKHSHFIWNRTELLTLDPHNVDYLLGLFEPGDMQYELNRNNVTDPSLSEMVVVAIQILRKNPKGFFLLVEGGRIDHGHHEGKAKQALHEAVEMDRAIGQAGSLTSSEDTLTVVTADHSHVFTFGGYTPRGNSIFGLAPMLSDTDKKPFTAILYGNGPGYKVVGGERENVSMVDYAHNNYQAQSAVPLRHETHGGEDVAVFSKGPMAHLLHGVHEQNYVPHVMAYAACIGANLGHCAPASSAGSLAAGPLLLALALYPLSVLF

[3] = target: T3, Intestinal-type alkaline phosphatase (Mus musculus, UniProt P24822); test: PubChem AID 488785; format: functional
[4] = target: T4, Intestinal-type alkaline phosphatase (Homo sapiens, UniProt P09923); test: activation of human intestinal alkaline phosphatase – biochemical, dose response (AID 488873); format: functional
[5] = target: T2, Alkaline phosphatase, tissue-nonspecific isozyme; test: TNAP enzyme activators, dose response, selectivity assay for human IAP activator project, biochemical, TNAP isozyme, human IAP uHTS hits (AID 488886); format: functional;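 note: potency of compounds raising TNAP activity as a selectivity check on IAP activators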
[6] = target: T5, Zinc finger protein mex-5 (Caenorhabditis elegans, UniProt Q9XUB2); test: MEX-5/TCR-2 RNA interaction inhibitors, dose response, biochemical, C. elegans, fluorescence polarization (AID 1960)
T5 sequence (Q9XUB2 whole entry): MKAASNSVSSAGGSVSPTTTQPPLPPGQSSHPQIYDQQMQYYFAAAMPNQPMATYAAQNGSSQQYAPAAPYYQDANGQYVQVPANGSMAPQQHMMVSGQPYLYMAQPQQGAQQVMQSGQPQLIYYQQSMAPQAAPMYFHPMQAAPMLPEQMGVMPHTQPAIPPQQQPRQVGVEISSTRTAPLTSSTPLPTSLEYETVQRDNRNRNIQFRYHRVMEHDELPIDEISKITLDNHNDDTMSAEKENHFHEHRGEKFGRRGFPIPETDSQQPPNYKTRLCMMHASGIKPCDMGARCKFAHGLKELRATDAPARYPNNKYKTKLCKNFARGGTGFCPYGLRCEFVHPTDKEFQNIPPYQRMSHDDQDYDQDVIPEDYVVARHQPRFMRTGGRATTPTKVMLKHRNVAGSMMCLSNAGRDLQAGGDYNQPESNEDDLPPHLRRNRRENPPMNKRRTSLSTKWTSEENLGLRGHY

[7] = target: T4, Intestinal-type alkaline phosphatase; test: human IAP inhibitors, dose response, biochemical, luminescent, uHTS hits, set 2 (AID 488793); format: functional
[8] = target: T3, Intestinal-type alkaline phosphatase; test: PubChem AID 488874; format: functional
[9] = target: T2, Alkaline phosphatase, tissue-nonspecific isozyme; test: TNAP enzyme inhibition by screening hits, dose response, selectivity assay for mouse IAP inhibitor project, biochemical, human TNAP, uHTS hits (AID 488906); format: functional
[10] = target: Alkaline phosphatase, placental type (Homo sapiens, UniProt P05187); test: PLAP enzyme inhibitors, confirmation, biochemical, luminescence (AID 1512); format: functional
[11] = target: T4, Intestinal-type alkaline phosphatase; test: Dose Response confirmation of uHTS hits from a small molecule inhibitors of human intestinal alkaline phosphatase via a luminescent assay. [Related pubchem assays (depositor defined):AID2544, AID2574]; format: functional
[12] = target: Induced myeloid leukemia cell differentiation protein Mcl-1 (Homo sapiens, UniProt Q07820); format: functional
[13] = target: T6, Apoptotic protease-activating factor 1 (Homo sapiens, UniProt O14727); test: activation of Apaf-1 mediated apoptosis – fluorescent, uHTS hits, dose response (AID 588554); format: functional
T6 sequence (O14727 whole entry): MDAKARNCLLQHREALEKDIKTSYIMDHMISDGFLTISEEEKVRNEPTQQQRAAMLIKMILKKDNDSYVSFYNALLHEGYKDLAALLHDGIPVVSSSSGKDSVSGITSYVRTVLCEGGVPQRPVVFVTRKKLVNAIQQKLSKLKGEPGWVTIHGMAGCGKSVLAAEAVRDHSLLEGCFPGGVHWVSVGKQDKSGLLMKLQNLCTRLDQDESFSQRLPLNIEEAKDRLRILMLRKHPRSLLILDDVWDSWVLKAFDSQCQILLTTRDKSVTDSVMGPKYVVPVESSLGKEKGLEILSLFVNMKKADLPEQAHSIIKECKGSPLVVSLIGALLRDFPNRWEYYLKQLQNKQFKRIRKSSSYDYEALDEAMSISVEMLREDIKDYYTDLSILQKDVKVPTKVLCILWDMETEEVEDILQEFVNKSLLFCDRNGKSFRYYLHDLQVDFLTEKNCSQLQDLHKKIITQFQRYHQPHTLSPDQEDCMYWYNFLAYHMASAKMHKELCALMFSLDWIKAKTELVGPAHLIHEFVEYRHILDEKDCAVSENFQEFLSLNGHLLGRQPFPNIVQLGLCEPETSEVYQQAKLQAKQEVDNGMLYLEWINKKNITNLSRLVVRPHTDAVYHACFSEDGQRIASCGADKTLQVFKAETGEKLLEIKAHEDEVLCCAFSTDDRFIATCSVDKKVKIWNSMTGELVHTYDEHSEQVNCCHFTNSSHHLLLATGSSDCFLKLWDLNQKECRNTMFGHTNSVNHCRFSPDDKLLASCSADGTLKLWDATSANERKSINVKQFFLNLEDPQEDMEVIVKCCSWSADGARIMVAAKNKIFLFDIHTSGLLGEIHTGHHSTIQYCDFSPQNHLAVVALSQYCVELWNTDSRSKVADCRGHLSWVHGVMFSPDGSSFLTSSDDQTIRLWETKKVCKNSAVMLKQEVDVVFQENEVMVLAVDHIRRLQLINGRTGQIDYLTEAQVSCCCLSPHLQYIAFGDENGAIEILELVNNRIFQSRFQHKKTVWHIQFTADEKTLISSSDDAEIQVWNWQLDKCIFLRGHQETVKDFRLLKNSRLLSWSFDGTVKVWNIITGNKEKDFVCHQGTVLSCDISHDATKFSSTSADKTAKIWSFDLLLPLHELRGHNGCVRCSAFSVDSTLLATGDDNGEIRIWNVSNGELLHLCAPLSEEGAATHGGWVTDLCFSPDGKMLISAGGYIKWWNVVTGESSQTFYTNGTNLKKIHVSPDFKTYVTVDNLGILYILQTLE

[14] = target: T7, Small ubiquitin-related modifier 1 (Homo sapiens, UniProt P63165); test: inhibitors of SUMO1 partner interactions, dose response, biochemical, FRET (AID 624383); format: functional; conditions: read-out: IC50_Mean
[15] = target: DNA (cytosine-5)-methyltransferase 1 (Homo sapiens, UniProt P26358); test: DNMT1 methyltransferase inhibitors, confirmation, biochemical, fluorescent molecular beacon (AID 602386); format: functional
[16] = target: T8, Voltage-gated N-type calcium channel alpha-1B subunit/Amyloid beta A4 precursor protein-binding family A member 1 (Homo sapiens, UniProt Q00975+Q02410); format: protein assay
[17] = target: T7, Small ubiquitin-related modifier 1; test: inhibitors of SUMO1 peptide binding, dose response, biochemical, fluorescence polarization, uHTS hits (AID 624382); format: functional; conditions: read-out: IC50_Mean
[18] = target: T8, Voltage-gated N-type calcium channel alpha-1B subunit/Amyloid beta A4 precursor protein-binding family A member 1; format: protein assay; remark: listed apart in the source
[19] = target: DNA dC->dU-editing enzyme APOBEC-3G (Homo sapiens, UniProt Q9HC16); test: Dose Response confirmation of small molecule APOBEC3G DNA Deaminase Inhibitors via a fluorescence-based single-stranded DNA deaminase assay. [Related pubchem assays (depositor defined):AID493012, AID493028]; format: functional
[20] = target: DNA dC->dU-editing enzyme APOBEC-3A (Homo sapiens, UniProt P31941); test: APOBEC3A DNA deaminase inhibitors, dose response, biochemical (AID 504722); format: functional
[21] = target: T9, Calpain-2 catalytic subunit (Sus scrofa, UniProt P43367); test: pig calpain II inhibitor potency, dose response, biochemical, fluorogenic peptide substrate (AID 1420); format: functional
T9 sequence (P43367 whole entry): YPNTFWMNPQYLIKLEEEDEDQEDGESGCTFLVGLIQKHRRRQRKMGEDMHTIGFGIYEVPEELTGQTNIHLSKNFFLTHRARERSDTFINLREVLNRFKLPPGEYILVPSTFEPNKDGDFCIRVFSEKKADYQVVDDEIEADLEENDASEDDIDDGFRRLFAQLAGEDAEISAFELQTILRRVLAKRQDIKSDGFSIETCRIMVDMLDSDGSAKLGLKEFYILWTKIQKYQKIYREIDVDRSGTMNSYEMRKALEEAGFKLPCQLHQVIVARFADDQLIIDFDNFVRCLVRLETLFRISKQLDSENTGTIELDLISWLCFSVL

Prothrombin = Prothrombin (Homo sapiens, UniProt P00734); test: Thrombin 1536 HTS Dose Response Confirmation. [Related pubchem assays: 1046 (Thrombin 1536 HTS; hits were confirmed in this assay)]; format: functional
[22] = target: T4, Intestinal-type alkaline phosphatase; test: inhibition of human intestinal alkaline phosphatase – biochemical, dose response (AID 488876); format: functional
Cytochrome P450 2D6 = Cytochrome P450 2D6 (Homo sapiens, UniProt P10635);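 note: CYP2D6 member of a cytochrome P450 panel assay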
Cytochrome P450 2C19 = Cytochrome P450 2C19 (Homo sapiens, UniProt P33261); test: Cytochrome panel assay with activity outcomes. Panel member name: p450-cyp2c19 Compounds with AC50 equal or less than 10 uM are considered active; format: functional; conditions: read-out: AC50
Cytochrome P450 2C9 = Cytochrome P450 2C9 (Homo sapiens, UniProt P11712)
[23] = target: Lysine-specific demethylase 4C (Homo sapiens, UniProt Q9H3R0); test: GASC-1 (JMJD2C) histone demethylase inhibitors, dose response, biochemical, DELFIA europium, cherry-picked samples (AID 488835); format: functional
[24] = target: Sphingosine 1-phosphate receptor 1 (Homo sapiens, UniProt P21453); test: Late stage counterscreen assay for S1P4 antagonists: Fluorescence dose response cell-based screening assay for antagonists of the Sphingosine 1-Phosphate Receptor 1 (S1P1). [Related pubchem assays (depositor defined):AID1510, AID1524, AID1692, AID1853, AID2332, AID489009, AID489017]; format: functional
[25] = target: Sphingosine 1-phosphate receptor 5 (Homo sapiens, UniProt Q9H228); test: Late stage counterscreen assay for S1P4 antagonists: Fluorescence dose response cell-based screening assay for antagonists of the Sphingosine 1-Phosphate Receptor 5 (S1P5). [Related pubchem assays (depositor defined):AID1510, AID1524, AID1692, AID1853, AID2332, AID489009, AID489017]; format: functional
[26] = target: Sphingosine 1-phosphate receptor 2 (Homo sapiens, UniProt O95136); test: Late stage counterscreen assay for S1P4 antagonists: Fluorescence dose response cell-based screening assay for antagonists of the Sphingosine 1-Phosphate Receptor 2 (S1P2). [Related pubchem assays (depositor defined):AID1510, AID1524, AID1692, AID1853, AID2332, AID489009, AID489017]; format: functional
[27] = target: Sphingosine 1-phosphate receptor 3 (Homo sapiens, UniProt Q99500); test: Late stage counterscreen assay for S1P4 antagonists: Fluorescence dose response cell-based screening assay for antagonists of the Sphingosine 1-Phosphate Receptor 3 (S1P3). [Related pubchem assays (depositor defined):AID1510, AID1524, AID1692, AID1853, AID2332, AID489009, AID489017]; format: functional

T3 sequence (P24822 whole entry): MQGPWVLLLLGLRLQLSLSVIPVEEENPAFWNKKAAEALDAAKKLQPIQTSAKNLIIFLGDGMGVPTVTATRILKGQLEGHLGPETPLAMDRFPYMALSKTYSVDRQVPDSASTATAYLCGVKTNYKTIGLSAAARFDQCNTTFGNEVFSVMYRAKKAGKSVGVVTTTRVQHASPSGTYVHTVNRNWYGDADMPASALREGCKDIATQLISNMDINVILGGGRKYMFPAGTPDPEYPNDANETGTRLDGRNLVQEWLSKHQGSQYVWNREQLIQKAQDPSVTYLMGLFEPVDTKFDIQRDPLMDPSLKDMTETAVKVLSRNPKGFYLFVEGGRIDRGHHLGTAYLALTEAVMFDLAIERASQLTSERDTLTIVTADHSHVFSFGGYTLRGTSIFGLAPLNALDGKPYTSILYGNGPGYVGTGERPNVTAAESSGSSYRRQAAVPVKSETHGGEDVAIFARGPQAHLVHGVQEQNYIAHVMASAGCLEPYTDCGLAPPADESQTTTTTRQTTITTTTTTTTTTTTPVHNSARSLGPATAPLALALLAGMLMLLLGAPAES
T4 sequence (P09923 whole entry): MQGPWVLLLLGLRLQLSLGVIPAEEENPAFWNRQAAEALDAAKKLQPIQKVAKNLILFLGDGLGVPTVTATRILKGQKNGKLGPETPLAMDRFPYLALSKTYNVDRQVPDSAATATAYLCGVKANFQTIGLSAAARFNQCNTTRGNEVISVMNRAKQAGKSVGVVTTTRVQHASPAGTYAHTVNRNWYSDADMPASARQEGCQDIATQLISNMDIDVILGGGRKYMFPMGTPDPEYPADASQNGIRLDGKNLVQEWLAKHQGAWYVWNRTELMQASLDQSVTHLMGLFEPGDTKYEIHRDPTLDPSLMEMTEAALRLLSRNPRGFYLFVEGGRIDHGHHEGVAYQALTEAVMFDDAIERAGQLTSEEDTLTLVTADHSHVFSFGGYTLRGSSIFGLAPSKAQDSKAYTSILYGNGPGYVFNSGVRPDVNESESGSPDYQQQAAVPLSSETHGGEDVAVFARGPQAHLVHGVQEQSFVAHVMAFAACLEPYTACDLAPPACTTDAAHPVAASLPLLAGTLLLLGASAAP
T7 sequence (P63165 whole entry): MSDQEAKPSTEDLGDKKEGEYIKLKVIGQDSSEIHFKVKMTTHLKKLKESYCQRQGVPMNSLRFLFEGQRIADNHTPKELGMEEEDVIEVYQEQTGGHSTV
T8 sequence (Q00975 whole entry): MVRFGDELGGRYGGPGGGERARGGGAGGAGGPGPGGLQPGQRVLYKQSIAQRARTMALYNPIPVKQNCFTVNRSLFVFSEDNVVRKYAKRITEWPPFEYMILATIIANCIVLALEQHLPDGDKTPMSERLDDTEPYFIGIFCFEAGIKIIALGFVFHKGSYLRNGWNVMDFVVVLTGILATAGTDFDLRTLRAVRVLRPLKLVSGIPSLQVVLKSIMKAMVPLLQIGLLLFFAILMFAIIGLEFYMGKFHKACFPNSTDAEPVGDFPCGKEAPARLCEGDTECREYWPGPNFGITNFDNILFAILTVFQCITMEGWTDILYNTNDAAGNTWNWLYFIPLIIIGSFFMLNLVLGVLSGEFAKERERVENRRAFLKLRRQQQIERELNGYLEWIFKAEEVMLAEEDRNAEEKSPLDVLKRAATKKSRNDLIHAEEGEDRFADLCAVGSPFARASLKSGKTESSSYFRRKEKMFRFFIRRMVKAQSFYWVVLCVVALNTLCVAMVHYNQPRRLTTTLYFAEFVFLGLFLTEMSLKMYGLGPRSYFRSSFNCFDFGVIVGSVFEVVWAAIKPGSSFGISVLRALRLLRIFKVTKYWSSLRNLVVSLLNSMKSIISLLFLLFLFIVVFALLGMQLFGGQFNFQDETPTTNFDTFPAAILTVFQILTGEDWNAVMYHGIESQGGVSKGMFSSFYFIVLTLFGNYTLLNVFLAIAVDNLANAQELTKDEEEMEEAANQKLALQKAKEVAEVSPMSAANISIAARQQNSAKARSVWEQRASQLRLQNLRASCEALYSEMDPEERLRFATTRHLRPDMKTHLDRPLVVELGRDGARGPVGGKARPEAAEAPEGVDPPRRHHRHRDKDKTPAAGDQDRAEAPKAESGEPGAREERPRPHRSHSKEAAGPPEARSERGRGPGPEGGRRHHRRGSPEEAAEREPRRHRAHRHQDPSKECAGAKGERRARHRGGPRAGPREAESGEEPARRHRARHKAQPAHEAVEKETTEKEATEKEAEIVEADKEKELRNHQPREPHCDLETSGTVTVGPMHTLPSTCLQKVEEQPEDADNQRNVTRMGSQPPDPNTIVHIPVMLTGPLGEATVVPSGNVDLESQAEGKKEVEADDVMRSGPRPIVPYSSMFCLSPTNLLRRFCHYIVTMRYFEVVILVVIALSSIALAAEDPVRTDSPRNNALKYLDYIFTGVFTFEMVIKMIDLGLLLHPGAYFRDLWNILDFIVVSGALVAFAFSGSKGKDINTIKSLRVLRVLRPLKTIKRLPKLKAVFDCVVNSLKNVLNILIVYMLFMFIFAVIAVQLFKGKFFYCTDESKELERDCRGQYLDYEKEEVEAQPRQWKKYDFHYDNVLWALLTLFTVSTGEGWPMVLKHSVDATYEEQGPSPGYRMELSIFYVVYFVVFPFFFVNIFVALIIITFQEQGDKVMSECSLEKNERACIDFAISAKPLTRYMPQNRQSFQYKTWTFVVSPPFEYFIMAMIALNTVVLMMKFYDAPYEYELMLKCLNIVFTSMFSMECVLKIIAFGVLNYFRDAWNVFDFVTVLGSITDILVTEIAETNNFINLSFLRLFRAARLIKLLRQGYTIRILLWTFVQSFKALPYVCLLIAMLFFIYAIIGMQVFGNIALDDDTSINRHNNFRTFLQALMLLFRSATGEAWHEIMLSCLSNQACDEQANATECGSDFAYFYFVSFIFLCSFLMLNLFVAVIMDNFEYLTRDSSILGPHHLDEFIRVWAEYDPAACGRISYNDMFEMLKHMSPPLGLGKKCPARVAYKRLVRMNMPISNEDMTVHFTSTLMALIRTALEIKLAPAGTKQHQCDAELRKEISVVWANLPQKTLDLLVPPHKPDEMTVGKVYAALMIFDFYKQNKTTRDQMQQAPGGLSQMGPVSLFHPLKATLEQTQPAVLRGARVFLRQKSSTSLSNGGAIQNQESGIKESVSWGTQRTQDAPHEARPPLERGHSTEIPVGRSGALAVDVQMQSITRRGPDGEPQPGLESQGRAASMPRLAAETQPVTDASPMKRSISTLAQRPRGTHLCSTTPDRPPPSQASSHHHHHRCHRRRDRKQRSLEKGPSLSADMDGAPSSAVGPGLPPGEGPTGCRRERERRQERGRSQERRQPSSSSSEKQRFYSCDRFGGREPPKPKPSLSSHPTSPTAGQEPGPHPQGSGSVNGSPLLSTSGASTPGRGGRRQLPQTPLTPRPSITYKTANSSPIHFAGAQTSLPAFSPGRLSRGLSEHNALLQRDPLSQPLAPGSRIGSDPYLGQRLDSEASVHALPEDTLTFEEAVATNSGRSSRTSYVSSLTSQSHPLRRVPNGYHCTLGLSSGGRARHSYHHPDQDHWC
T8 sequence (Q02410 whole entry): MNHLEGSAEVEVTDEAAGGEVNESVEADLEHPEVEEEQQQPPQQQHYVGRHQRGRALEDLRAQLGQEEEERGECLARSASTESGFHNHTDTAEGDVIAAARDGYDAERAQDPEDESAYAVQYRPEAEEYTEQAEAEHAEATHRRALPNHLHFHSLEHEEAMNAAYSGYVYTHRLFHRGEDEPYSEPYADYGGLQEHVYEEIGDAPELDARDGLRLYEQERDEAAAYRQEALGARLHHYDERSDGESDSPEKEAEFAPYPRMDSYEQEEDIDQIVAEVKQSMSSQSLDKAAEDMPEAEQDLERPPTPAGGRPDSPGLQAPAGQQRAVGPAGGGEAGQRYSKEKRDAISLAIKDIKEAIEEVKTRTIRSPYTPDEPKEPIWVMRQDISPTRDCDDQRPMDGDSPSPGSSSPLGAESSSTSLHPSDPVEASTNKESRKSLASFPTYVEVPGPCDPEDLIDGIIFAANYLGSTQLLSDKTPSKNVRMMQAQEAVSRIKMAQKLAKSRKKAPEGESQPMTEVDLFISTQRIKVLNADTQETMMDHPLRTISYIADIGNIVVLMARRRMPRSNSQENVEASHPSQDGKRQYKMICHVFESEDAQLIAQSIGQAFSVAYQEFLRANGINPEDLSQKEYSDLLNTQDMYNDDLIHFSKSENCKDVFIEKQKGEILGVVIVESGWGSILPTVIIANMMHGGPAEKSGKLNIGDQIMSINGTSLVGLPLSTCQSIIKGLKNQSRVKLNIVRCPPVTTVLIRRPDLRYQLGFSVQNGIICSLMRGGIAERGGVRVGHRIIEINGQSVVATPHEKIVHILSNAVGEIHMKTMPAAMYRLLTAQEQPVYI
Sequence of Cytochrome P450 2D6 (P10635 whole entry): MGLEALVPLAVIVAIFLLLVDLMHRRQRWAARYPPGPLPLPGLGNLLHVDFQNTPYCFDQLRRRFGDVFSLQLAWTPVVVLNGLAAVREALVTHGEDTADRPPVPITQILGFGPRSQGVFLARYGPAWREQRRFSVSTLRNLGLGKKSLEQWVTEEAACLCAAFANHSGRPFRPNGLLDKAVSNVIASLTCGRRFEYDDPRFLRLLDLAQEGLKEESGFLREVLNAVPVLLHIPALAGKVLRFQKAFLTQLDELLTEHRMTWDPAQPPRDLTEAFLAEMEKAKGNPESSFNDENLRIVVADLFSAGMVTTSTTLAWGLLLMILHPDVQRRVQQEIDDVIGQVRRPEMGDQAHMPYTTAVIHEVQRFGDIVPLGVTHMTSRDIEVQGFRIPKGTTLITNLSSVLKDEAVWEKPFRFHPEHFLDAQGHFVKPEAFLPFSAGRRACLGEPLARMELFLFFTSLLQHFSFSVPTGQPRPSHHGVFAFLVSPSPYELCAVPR
Sequence of DNA dC->dU-editing enzyme APOBEC-3A (P31941 whole entry): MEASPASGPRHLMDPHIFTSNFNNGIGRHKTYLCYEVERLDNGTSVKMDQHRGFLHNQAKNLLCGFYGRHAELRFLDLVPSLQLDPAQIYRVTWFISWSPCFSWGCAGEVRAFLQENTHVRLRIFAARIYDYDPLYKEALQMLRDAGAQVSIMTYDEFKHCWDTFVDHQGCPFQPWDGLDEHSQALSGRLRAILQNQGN

CNc1nnc(-c2cc3ccccc3oc2=O)s1
EC50 [1]: > 300 µM (not active)
IC50 [2]: > 100 µM (inactive)
IC50 [3]: 1.53 µM (active)
EC50 [4]: > 100 µM (inactive)
EC50 [5]: > 100 µM (inactive)
EC50 [6]: > 300 µM (not active)
IC50 [7]: 1.29 µM (active)
IC50 [8]: 5.83 µM (active)
IC50 [9]: 25.8 µM (active)
IC50 [10]: 5.81 µM (active)
IC50 [11]: 1.76 µM (active)

C=C(C)C(=O)Nc1cccc(C2=NOC3(C2)C[C@@H](C(N)=O)N(C(=O)/C=C/C=C/C)C3)c1 (stereo partly drawn)
IC50 [12]: 2.3 µM (active)
EC50 [13]: 1.17 µM (active)
IC50 [14]: 1.72 µM (active)
IC50 [15]: 3.25 µM (active)
IC50 [16]: 34.3 µM (active)
IC50 [17]: > 66.6 µM (inactive)
IC50 [18]: 10 µM (active)
IC50 [19]: 3.41 µM (active)
IC50 [20]: > 100 µM (inactive)

COc1cccc(NC(S)=NCCC(c2ccccc2)c2ccccc2)c1
IC50 [21]: 3.72 µM (not active)
IC50 [3]: 5.12 µM (active)
IC50 (Prothrombin): > 50 µM (not active)
IC50 [22]: > 100 µM (inactive)
IC50 [9]: 92.7 µM (active)

CCCOc1ccc(/C=C/C(=O)Nc2ccc([N+](=O)[O-])cc2C)cc1
AC50 (Cytochrome P450 2D6): inconclusive
AC50 (Cytochrome P450 2C19): 0.631 µM (inconclusive)
AC50 (Cytochrome P450 2C9): 1.41 µM (inconclusive)

O=C(Nc1cc(S(=O)(=O)N2CCOCC2)ccc1N1CCCC1)c1ccc(F)cc1
AC50 [23]: 20.1 µM (active)

Cc1ccc(C)c(NC(=O)c2ccc(-c3cc(Cl)ccc3Cl)o2)c1
IC50 [24]: > 25 µM (inactive)
IC50 [25]: > 25 µM (inactive)
IC50 [26]: > 25 µM (inactive)
IC50 [27]: > 25 µM (inactive)

Reference: ChEMBL document CHEMBL1201862, “PubChem BioAssay data set” (2004)
